Results as given in US20070161697A1, “Hydrazide type compounds and the use thereof in pharmaceutical compositions for the treatment of cardiovascular diseases” (priority 2004, published 2007).

System: rats
Assay: Hyperglycaemia test (glucose tolerance) in rats on fructose-rich regimen
Type: in vivo
Settings: oral, glucose shock after 14th day, FIG. 18
Excerpt: Rats (n=12) were subjected to a dietary regimen rich in fructose (10%) for 21 days. After the 14th day, hyperglycaemic shock is induced by administration of 2 g/kg of glucose in the presence or absence of the compound CGP 02-01 administered via the oral route. The plasma glucose level is subsequently measured.

For `COc1cc(O)c(/C=N/NC(=O)c2cc3ccccc3s2)c(OC)c1` [CGP02-01, N′-[(1E)-(2-hydroxy-4,6-dimethoxyphenyl)methylene]-1-benzothiophene-2-carbohydrazide], the “Effect against induced hyperglycaemia (2 g/kg glucose)” value was “protective effect”.
